Several values for one entry are separate records, joined by “and”; a condition that tells them apart may be missing. Equal values may be shown once. Read-outs that look alike come from different tables or passages of the source.

For one series, the system named is HepG2 cells. As to the kind of experiment: Label-free cellular impedance assay (xCELLigence) in HepG2 cells. The format is cell-based, human. The note with it: for effect of signaling pathway inhibitor pretreatment on the impedance response to lodoxamide: HepG2 cells, FR900359 1 × 10^–7 M, Pertussis toxin 100 ng/mL, Y27632 1 × 10^–5 M. The procedure: HepG2 cells were seeded onto xCELLigence E plates (2 × 10^4 cells/well) and incubated for 24 h at 37 °C. To evaluate GPR35 activation and its downstream G protein signaling, HepG2 cells or primary mouse hepatocytes were exposed to GPR35 antagonists or G protein inhibitors 1 h (overnight for Pertussis toxin) prior to GPR35 agonist stimulation. After the addition of GPR35 agonist or vehicle control, the impedance (represented as “cell index”) was recorded every 30 s over a 2 h period using xCELLigence RTCA (Agilent). Each experiment was repeated at least three times.

A further series addresses mouse GPR35 (Mus musculus, UniProt Q9ES90). Kind of series: β-arrestin-based interaction assay, agonist potency at mouse GPR35. The format is cell-based.
The subject of series [1] is hepatocytes from wild-type mice. As to the kind of experiment: Oil Red O lipid accumulation in hepatocytes from wild-type mice. The series is classed as cell-based, mouse. The note with it: 48 h, hepatocytes from wild-type mice, co-incubation with T0901317 5 × 10^–6 M, read-out: EC50 for suppression of LXR-mediated lipid accumulation. On the procedure: All mice were bred as WT or homozygous onto a C57BL/6N background. Animals were cared for in accordance with national guidelines on animal experimentation. All animal experiments were conducted under a home office license held by the authors. WT, humanized GPR35a, or KO male mice at 3–4 months of age were used in this study. These mice were fed ad libitum with a standard mouse chow diet. Briefly, mouse primary hepatocytes were isolated using a two-step collagenase perfusion technique.[45] Twelve-well plates or xCELLigence E plates were coated with rat tail collagen I solution (Thermo Fisher Scientific) overnight at 37 °C and washed with PBS. Isolated primary hepatocytes were seeded onto 12-well plates (8 × 10^4 cells/well) or xCELLigence E plates (2 × 10^4 cells/well) in Wiliam’s E medium (Thermo Fisher Scientific) supplemented with 10% fetal bovine serum (FBS) and 1× penicillin/streptomycin. Cells were maintained for 7 days with a fresh medium change every other day. […] Human GPR35 activation was examined using xCELLigence RTCA assay. To access the impact of GPR35 agonists on the lipid accumulation, WT and humanized GPR35 hepatocytes were incubated with T0901317 and/or GPR35 agonists/antagonists, as indicated (in DMEM medium containing 5% FBS and 1.5% BSA) for 48 h. Alternatively, GPR35 KO hepatocytes were incubated with drugs, as indicated for 5 days. […] After each drug treatment, hepatocytes were stained with Oil Red O and quantified as described. […]
(§1) Lipid accumulation was measured by Oil Red O staining. […] After PBS washing, Oil Red O was extracted from cells using 150 μl of isopropanol and OD510 nm measured. […] These cells were then stained with Hoechst 33342 (1 μg/mL) and the fluorescence intensity of Hoechst (represents the DNA content in cells) was measured using a CLARIOstar plate reader (BMG LABTECH). Oil Red O accumulation was corrected for differences in DNA content and expressed as relative absorbency, taking the control condition (treated with vehicle only) as 1.

Another series concerns the target human GPR35a (Homo sapiens, UniProt Q9HC97). Kind of series: β-arrestin-based interaction assay, agonist potency at human GPR35a. The series is classed as cell-based.
The subject of series [2] is hepatocytes from GPR35 knock-out mice. Kind of series: Oil Red O lipid accumulation in hepatocytes from GPR35 knock-out mice. As to conditions: treatment for 5 days. The procedure:
All mice were bred as WT or homozygous onto a C57BL/6N background. Animals were cared for in accordance with national guidelines on animal experimentation. All animal experiments were conducted under a home office license held by the authors. WT, humanized GPR35a, or KO male mice at 3–4 months of age were used in this study. These mice were fed ad libitum with a standard mouse chow diet. Briefly, mouse primary hepatocytes were isolated using a two-step collagenase perfusion technique.[45] Twelve-well plates or xCELLigence E plates were coated with rat tail collagen I solution (Thermo Fisher Scientific) overnight at 37 °C and washed with PBS. […] After each drug treatment, hepatocytes were stained with Oil Red O and quantified as described. […]
as §1

For series [3], the system named is GPR35 genome-edited HepG2 clones. As to the kind of experiment: Label-free cellular impedance assay in GPR35 genome-edited HepG2 clones 19 and 27. The format is cell-based, human. The note with it: 1 × 10^–5 M. The source says: Expression of full-length mRNA from the GPR35 gene was eliminated using a dual synthetic gRNA/RNP approach[43] with one guide cutting the intron and one in the exon region to generate a nonfunctional GPR35 protein. The gRNAs were designed with the CRISPR Finder (Welcome Sanger Institute). HepG2 cells were transfected with the Neon Transfection System from Thermo Fisher Scientific (Waltham, MA), according to the manufacturer’s instructions. Briefly, CrRNA and tracrRNA were annealed to gRNA at 95 °C for 5 min. Next, cells were transfected with gRNA, Cas9, and the electroporation enhancer, according to the manufacturer’s instructions. All crRNAs, tracrRNA, SpCas9 nuclease, and the electroporation enhancer were purchased from Integrated DNA Technologies (Coralville, IA). Transfected cells were plated and analyzed for editing efficiency 24–48 h after electroporation. Single-cell clones were generated by single-cell FACS sorting. Clones were expanded and to access editing efficiency, genomic DNA from cell clones was extracted and subjected to PCR to confirm the genome deletion. To further quantify and capture the genomic DNA deletion, PCR primers listed in Table S1 were designed to amplify the genomic DNA surrounding the target site. The PCR primers were linked to the sequences of the Illumina Nextera adapters. The amplified PCR products were subjected to paired-end sequencing using NextSeq500 from Illumina using paired-end chemistry with a 150-bp read length. In addition, mRNA from KO clones was isolated and subjected to RT-PCR. To further confirm the abrogation of GPR35 activation in CRISPR KO clones, KO cells were seeded onto xCELLigence E plates (2 × 10^4 cells/well) for 24 h at 37 °C prior to the treatment of GPR35 agonists. The impedance was recorded using xCELLigence RTCA. […]
HepG2 cells were seeded onto xCELLigence E plates (2 × 10^4 cells/well) and incubated for 24 h at 37 °C. […] After the addition of GPR35 agonist or vehicle control, the impedance (represented as “cell index”) was recorded every 30 s over a 2 h period using xCELLigence RTCA (Agilent). […]

Chain of mouse GPR35 (Q9ES90 whole entry): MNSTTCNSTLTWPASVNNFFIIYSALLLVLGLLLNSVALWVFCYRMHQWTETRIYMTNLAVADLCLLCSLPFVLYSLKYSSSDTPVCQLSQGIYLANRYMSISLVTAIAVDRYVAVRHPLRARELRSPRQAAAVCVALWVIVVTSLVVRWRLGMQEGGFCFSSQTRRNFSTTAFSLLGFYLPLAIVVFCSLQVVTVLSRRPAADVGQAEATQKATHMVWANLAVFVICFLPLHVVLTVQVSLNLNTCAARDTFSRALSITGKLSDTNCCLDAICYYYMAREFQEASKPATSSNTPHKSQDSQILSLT
Chain of human GPR35a (Q9HC97 whole entry): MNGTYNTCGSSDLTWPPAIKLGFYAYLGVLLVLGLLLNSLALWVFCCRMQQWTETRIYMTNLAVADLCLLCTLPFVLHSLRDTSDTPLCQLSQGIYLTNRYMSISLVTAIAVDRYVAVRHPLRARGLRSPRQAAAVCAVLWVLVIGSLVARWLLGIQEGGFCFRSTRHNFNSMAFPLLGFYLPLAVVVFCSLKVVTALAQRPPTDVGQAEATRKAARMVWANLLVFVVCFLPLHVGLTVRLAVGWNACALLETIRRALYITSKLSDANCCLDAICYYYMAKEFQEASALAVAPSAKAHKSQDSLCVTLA

Take `C[C@@H](N)[C@H]1CC[C@H](C(=O)Nc2ccncc2)CC1` [Y27632]: the “effect of signaling pathway inhibitor pretreatment on the impedance response to lodoxamide” value with HepG2 cells is reported as “all but eliminated”.

In the case of `CCCCc1cc2c(=O)cc(C(=O)O)[nH]c2c2c(=O)cc(C(=O)O)[nH]c12` [bufrolin, 6-butyl-4,10-dioxo-1,7-dihydro-1,7-phenanthroline-2,8-dicarboxylic acid], the “fold more potent than lodoxamide at mouse GPR35” value at mouse GPR35 (bufrolin versus lodoxamide) was “more than 10 fold”. Further, the “fold lower potency at mouse GPR35 than at human GPR35” value at mouse GPR35 (mouse versus human GPR35) is given as about 10 fold. Also, the EC50 on mouse GPR35 (read-out: EC50 at the mouse GPR35) is under 100 nM; at mouse GPR35 (β-arrestin-based interaction assay, read-out: mouse GPR35, pEC50 (converted)) it was 155 nM; in series [1] (Mus musculus, Hepatocyte), 78.7 nM; in series [1], 79 nM and ~80 nM; at human GPR35a (β-arrestin-based interaction assay, read-out: human GPR35a, pEC50 (converted)), 14.8 nM. Moreover, on human GPR35a (log ratio of potency at human GPR35a over mouse GPR35), the “ratio (log) (H/M)” value was 1.02 ± 0.06. Besides, the “suppression of lipid accumulation induced by T0901317 in hepatocytes from GPR35 knock-out mice” value in series [2] is given as “did not suppress lipid accumulation”.

`CCCOc1ccccc1-c1nc2nn[nH]c2c(=O)[nH]1` [zaprinast] had an EC50 on mouse GPR35 of 661 nM. In addition, the “impedance signal in parental HepG2 cells” value in the series on HepG2 cells (1 × 10^–5 M) is recorded as “produced positive signals”. Further, the “impedance signal in GPR35 genome-edited clones 19 and 27” value in series [3] is on record as “not in either clone 19 or 27”.

In the case of Pertussis toxin, in the series with HepG2 cells, the “effect of signaling pathway inhibitor pretreatment on the impedance response to lodoxamide” value was “small although a statistically nonsignificant reduction”.
